According to patent publication US5139740A, “Polyprenyl compound composition for soft capsules” (Eisai Co., Ltd., priority 1989, dated 1992):

Assays:
[1] = cited from earlier work; for adverse reactions: clinical / reported in the literature
[2] = beagle; 200 mg indometacin farnesyl orally, formulated with the named additive
Protocol: In this test, the crossover method was employed by using six female beagles with the administration of 200 mg of indometacin farnesyl orally to each of them 30 min after breakfast, and sampling their blood at intervals to determine the concentration of indometacin farnesyl in their blood according to HPLC.
Six female beagles were used to determine indometacin farnesyl in the blood by the crossover method.
In the test, each sample was orally administered 30 min after breakfast and 2.5 ml of blood was sampled at intervals to determine the concentration of indometacin farnesyl under the HPLC conditions which will be described below.
The maximum blood concentration, Cmax (μg/ml), and the area under the blood concentration-time curve, AUC (μg hr/ml), 6 h after the administration of each of samples A to F were determined and expressed in terms of relative value with respect to those of a standard formulation.
stationary phase: Nucleosil®10 C18, 4.6 mm diameter×150mm
mobile phase: methanol/water (300/16)

[3] = Rat lymph absorption test (lymph cannulation method, HPLC); assay type: in vivo; settings: SD rats, 12-week old; 5 mg/kg indometacin farnesyl orally, formulated with the named additive
Protocol: In this test, 5 mg/kg of indometacin farnesyl was orally administered to SD rats (12-week old) and indometacin farnesyl in the lymphatic vessels was determined according to HPLC by the lymph cannulation method.

Row | Compound | adverse reactions [1] | absorption of indometacin farnesyl (in words) [2] | absorption of indometacin farnesyl into lymph (in words) [3] | antiinflammatory effect ([1]; prior art statement)
1 | COc1ccc2c(c1)c(CC(=O)O)c(C)n2C(=O)c1ccc(Cl)cc1 [indometacin] | various adverse reactions such as gastrointestinal or renal disturbances |  |  | 
2 | CCCCCCCC/C=C\CCCCCCCC(=O)O [oleic acid] |  | particularly excellent absorption |  | 
3 | CCCCC/C=C\C/C=C\CCCCCCCC(=O)O [linolic acid] |  | particularly excellent absorption | particularly excellent absorption | 
4 | COc1ccc2c(c1)c(CC(=O)OCC=C(C)CC/C=C(\C)CCC=C(C)C)c(C)n2C(=O)c1ccc(Cl)cc1 [indomethacin farnesyl, (6E)-3,7,11-trimethyl-2,6,10-dodecatrienyl 1-(p-chlorobenzoyl)-5-methoxy-2-methyl-lH-indole-3-acetate] | only slight adverse reactions |  |  | long-lasting antiinflammatory
